Literature values in article PMC6021390, “A promiscuous cytochrome P450 aromatic O-demethylase for lignin bioconversion” (Nature Communications, 2018).

Assays:
LigX = test system: LigX; design: method as in ref 37 (a number printed in a supplementary file, which may have a reference list of its own: not looked up in the article's list); details: 0.2 μM LigXa, 6 μM LigXc, 0.4 μM LigXd, 500 μM NADH, substrate 10-500 μM, FE22 buffer, pH 6.0, 30 °C; cited from earlier work
PODA [1] = test system: PODA; design: method as in ref 36 (a number printed in a supplementary file, which may have a reference list of its own: not looked up in the article's list); details: 100 μg PODA, 500 μM α-KG, 500 μM iron sulfate, 10 mM sodium ascorbate, cryptopine 0-500 μM, pH 7.4, 30 °C; cited from earlier work
PODA [2] = experiment: Cited steady-state O-demethylation of cryptopine (0-500 uM) by 100 ug PODA with 500 uM alpha-ketoglutarate, 500 uM iron sulfate and 10 mM sodium ascorbate in 100 mM Tris, pH 7.4, 30 °C, air.; type: biochemical; details: cited from earlier work

Compound	kcat (LigX)	kcat (PODA [1])	Km (PODA [2])
COc1cc(C(=O)O)cc(-c2cc(C(=O)O)cc(OC)c2O)c1O [5,5’-dehydrodivanillate]	6.1 ± 0.2 s⁻¹		
COc1cc2c(cc1OC)C(=O)Cc1ccc3c(c1CN(C)CC2)OCO3 [cryptopine]		0.034 s⁻¹	27 µM
